# How the values were obtained:
# [1] = molecular target: human Somatostatin 4 receptor (SSTR4) (Homo sapiens (Human), UniProt P31391); test: cAMP assay with human somatostatin 4 receptor (hSSTR4 expressing H4 cells); format: cell-based; conditions: cAMP assay, read-out: SSTR4 agonism EC50
# Method: Camp Assay Method Description for cAMP Assay with Human Somatostatin 4 Receptor
# The activation of the SSTR4 receptor (Gi coupled) causes an inhibition of intracellular cAMP after stimulation with Forskolin, which can be quantifiable by use of a suitable assay Kit and an adequate plate reader. This technique is used to characterize pharmacological effects of the SSTR4 receptor agonists by use of hSSTR4 expressing H4 cells.
# Compounds are dissolved and diluted in DMSO. The final test solution contains 1% DMSO. […] Cells are centrifuged and suspended in assay buffer (incl. 1:100 diluted Alexa antibody).
# For the assay 5 μl of a cell suspension (approximately 5000 cells/well)—incl. Alexa antibody (diluted 1:100) are added into a 384 well MTP microtitre plate excepting one row or column (depending on the plate layout), which is reserved for the standard curve. Then 2 μl of compound sample is added as concentration response curve (e.g. 1e-5 M to 6e-10 M), usually in triplicates. Each assay contains incubations with vehicle controls instead of compound as controls for non-inhibited cAMP generation (100% CTL; ‘high values’) and incubations with 1 μM Somatosatin as controls for full inhibition and background (0% CTL; […]). […] Then the plates are shaken briefly and incubated for 60 min at room temperature. After 60 min 10 μl of the detection mix is added into all wells followed by an additional incubation period of 1 h. The plates are read in a suitable plate reader.
# From this ratio, cAMP concentrations are calculated from standard curve and the EC50 is estimated by least square curve fit program.
# The EC50 values were obtained with the aid of the above described cAMP ASSAY.
# [2] = Metabolic stability in pooled human liver microsomes (half-life); format: in vitro ADME; conditions: 1 μM test compound; for half-life at 1 μM: pooled human liver microsomes, pH 7.6, 37° C., read-out: Half-life t1/2
# Method: The metabolic stability of the compounds according to the invention may be investigated as follows:
# The metabolic degradation of the test compound is assayed at 37° C. with pooled human liver microsomes. The final incubation volume of 100 μl per time point contains TRIS buffer pH 7.6 at room temperature (0.1 M), magnesium chloride (5 mM), microsomal protein (1 mg/mL) and the test compound at a final concentration of 1 μM. Following a short preincubation period at 37° C., the reactions are initiated by addition of beta-nicotinamide adenine dinucleotide phosphate, reduced form (NADPH, 1 mM), and terminated by transferring an aliquot into solvent after different time points. After centrifugation (10000 g, 5 min), an aliquot of the supernatant is assayed by LC-MS/MS for the amount of parent compound. The half-life is determined by the slope of the semi-logarithmic plot of the concentration-time profile.
# Sequence of human Somatostatin 4 receptor (SSTR4) (P31391 whole entry): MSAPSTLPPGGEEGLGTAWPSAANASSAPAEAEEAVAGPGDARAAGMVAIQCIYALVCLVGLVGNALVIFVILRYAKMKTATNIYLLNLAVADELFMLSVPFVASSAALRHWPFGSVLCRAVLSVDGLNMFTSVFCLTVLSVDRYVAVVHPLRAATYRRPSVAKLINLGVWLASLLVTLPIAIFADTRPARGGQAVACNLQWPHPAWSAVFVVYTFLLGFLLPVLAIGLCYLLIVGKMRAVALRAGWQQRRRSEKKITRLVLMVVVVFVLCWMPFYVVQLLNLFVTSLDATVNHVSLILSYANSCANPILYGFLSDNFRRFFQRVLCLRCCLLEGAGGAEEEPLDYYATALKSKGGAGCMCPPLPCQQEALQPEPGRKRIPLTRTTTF
structure (smiles),measurement,setting,value
Cc1cc(Cl)ccc1OCC(C)(C)NC(=O)[C@H]1[C@@H]2CNC[C@@H]21.Cl [Example 15],EC50,[1],7.8 nM
same,half-life at 1 μM,[2],> 2.17 h
Cc1cc(C#N)ccc1OCC(C)(C)NC(=O)[C@H]1[C@@H]2CNC[C@@H]21.Cl [Example 17],EC50,[1],1 nM
same,half-life at 1 μM,[2],> 2.17 h
CC(C)(COc1cccnc1C(F)(F)F)NC(=O)[C@H]1[C@@H]2CNC[C@@H]21.Cl [Example 18],EC50,[1],20.4 nM
same,half-life at 1 μM,[2],> 2.17 h
CC(C)(NC(=O)[C@H]1[C@@H]2CNC[C@@H]21)c1cnc2ccccn12.Cl [Example 20],EC50,[1],8.5 nM
same,half-life at 1 μM,[2],> 2.17 h
CC(C)(NC(=O)[C@H]1[C@@H]2CNC[C@@H]21)c1ncccc1C(F)(F)F.Cl [Example 23],EC50,[1],17.5 nM
same,half-life at 1 μM,[2],> 2.17 h
CC(C)(NC(=O)[C@H]1[C@@H]2CNC[C@@H]21)C1CCc2ccccc2O1.Cl (stereo partly drawn) [Example 28],EC50,[1],11.3 nM
same,half-life at 1 μM,[2],> 2.17 h
CC(C)(NC(=O)[C@H]1[C@@H]2CNC[C@@H]21)c1nc(C(F)(F)F)c2ccccn12.Cl [Example 31],EC50,[1],1.9 nM
same,half-life at 1 μM,[2],> 2.17 h
Cn1nc(C(C)(C)NC(=O)[C@H]2[C@@H]3CNC[C@@H]32)c2cccnc21 [Example 32],EC50,[1],9.9 nM
same,half-life at 1 μM,[2],> 2.17 h
Cc1cc(C(C)(C)NC(=O)[C@H]2[C@@H]3CNC[C@@H]32)c2ccccc2n1 [Example 33],EC50,[1],4.6 nM
same,half-life at 1 μM,[2],> 2.17 h
Cc1ccncc1OCC(C)(C)NC(=O)[C@H]1[C@@H]2CNC[C@@H]21 [Example 38],EC50,[1],27.8 nM
same,half-life at 1 μM,[2],> 2.17 h
CCc1ccccc1OCC(C)(C)NC(=O)[C@H]1[C@@H]2CNC[C@@H]21.Cl [Example 39],EC50,[1],3 nM
same,half-life at 1 μM,[2],> 2.17 h
CC(C)(COc1ccccc1Cl)NC(=O)[C@H]1[C@@H]2CNC[C@@H]21.Cl [Example 42],EC50,[1],14.7 nM
same,half-life at 1 μM,[2],> 2.17 h
Cc1cccc(OCC(C)(C)NC(=O)[C@H]2[C@@H]3CNC[C@@H]32)c1 [Example 43],EC50,[1],185 nM
same,half-life at 1 μM,[2],> 2.17 h
Cc1ncccc1OCC(C)(C)NC(=O)[C@H]1[C@@H]2CNC[C@@H]21.Cl [Example 44],EC50,[1],361 nM
same,half-life at 1 μM,[2],> 2.17 h
Cc1nc(C(C)(C)NC(=O)[C@H]2[C@@H]3CNC[C@@H]32)n2ccccc12 [Example 45],EC50,[1],1.2 nM
same,half-life at 1 μM,[2],> 2.17 h
Cc1cc(F)cnc1OCC(C)(C)NC(=O)[C@H]1[C@@H]2CNC[C@@H]21 [Example 48],EC50,[1],3.7 nM
same,half-life at 1 μM,[2],> 2.17 h
CC(C)(NC(=O)[C@H]1[C@@H]2CNC[C@@H]21)c1noc2ccccc12 [Example 51],EC50,[1],7.4 nM
same,half-life at 1 μM,[2],> 2.17 h
CC(C)(COc1ncccc1C(F)(F)F)NC(=O)[C@H]1[C@@H]2CNC[C@@H]21 [Example 52],EC50,[1],2.4 nM
same,half-life at 1 μM,[2],> 2.17 h
CC(C)(COc1cnc(Cl)c2ccccc12)NC(=O)[C@H]1[C@@H]2CNC[C@@H]21 [Example 53],EC50,[1],9.8 nM
same,half-life at 1 μM,[2],0.783 h
CC(C)(COc1cnccc1C1CC1)NC(=O)[C@H]1[C@@H]2CNC[C@@H]21 [Example 57],EC50,[1],16.3 nM
same,half-life at 1 μM,[2],> 2.17 h
CC(C)(COc1nnccc1C(F)(F)F)NC(=O)[C@H]1[C@@H]2CNC[C@@H]21 [Example 58],EC50,[1],22 nM
same,half-life at 1 μM,[2],> 2.17 h
Cc1ccccc1OCC(C)NC(=O)[C@H]1[C@@H]2CNC[C@@H]21.Cl (stereo partly drawn) [Example 59],EC50,[1],64.3 nM
same,half-life at 1 μM,[2],> 2.17 h
Cl.Cn1nccc1OCC(C)(C)NC(=O)[C@H]1[C@@H]2CNC[C@@H]21 [Example 60],EC50,[1],76.9 nM
same,half-life at 1 μM,[2],> 2.17 h
CC(C)(COc1ncccc1C1CC1)NC(=O)[C@H]1[C@@H]2CNC[C@@H]21 [Example 64],EC50,[1],2 nM
same,half-life at 1 μM,[2],> 2.17 h
Cc1cc(C2CC2)ccc1OCC(C)(C)NC(=O)[C@H]1[C@@H]2CNC[C@@H]21 [Example 65],EC50,[1],29.8 nM
same,Half-life t1/2,[2]; 37° C.,>2.17 h
Cc1ccnnc1OCC(C)(C)NC(=O)[C@H]1[C@@H]2CNC[C@@H]21.Cl [Example 67],EC50,[1],66.3 nM
same,half-life at 1 μM,[2],> 2.17 h
CC(C)(NC(=O)[C@H]1[C@@H]2CNC[C@@H]21)c1ncc2ccccn12.Cl [Example 68],EC50,[1],4.7 nM
same,half-life at 1 μM,[2],> 2.17 h
CC(C)(COc1ccccc1C1CC1)NC(=O)[C@H]1[C@@H]2CNC[C@@H]21 [Example 70],EC50,[1],5.7 nM
same,half-life at 1 μM,[2],> 2.17 h
Cc1ccccc1OCC(C)(C)NC(=O)[C@H]1[C@@H]2CN(C)C[C@@H]21.Cl [Example 71],EC50,[1],26.9 nM
same,half-life at 1 μM,[2],2 h
Cn1nc(C(C)(C)NC(=O)[C@H]2[C@@H]3CNC[C@@H]32)c2c(F)cccc21 [Example 74],EC50,[1],1.6 nM
same,half-life at 1 μM,[2],0.6 h
Cn1nc(C(C)(C)NC(=O)[C@H]2[C@@H]3CNC[C@@H]32)c2ccc(F)cc21 [Example 75],EC50,[1],0.4 nM
same,half-life at 1 μM,[2],> 2.17 h
Cn1nc(C(C)(C)NC(=O)[C@H]2[C@@H]3CNC[C@@H]32)c2cccc(C(F)(F)F)c21 [Example 76],EC50,[1],0.8 nM
same,half-life at 1 μM,[2],> 2.17 h
Cc1ccc(C(C)(C)NC(=O)[C@H]2[C@@H]3CNC[C@@H]32)n2ccnc12 [Example 83],EC50,[1],11 nM
same,half-life at 1 μM,[2],> 2.17 h
CC(C)(NC(=O)[C@H]1[C@@H]2CNC[C@@H]21)c1cc2ccccn2c1 [Example 87],EC50,[1],22.9 nM
same,half-life at 1 μM,[2],> 2.17 h
Cc1cccc2c(C(C)(C)NC(=O)[C@H]3[C@@H]4CNC[C@@H]43)ncnc12 [Example 88],EC50,[1],0.8 nM
same,half-life at 1 μM,[2],> 2.17 h
CCn1nc(C(C)(C)NC(=O)[C@H]2[C@@H]3CNC[C@@H]32)c2ccccc21 [Example 95],EC50,[1],3.6 nM
same,half-life at 1 μM,[2],> 2.17 h
CC(C)(NC(=O)[C@H]1[C@@H]2CNC[C@@H]21)c1noc2c(C(F)(F)F)cccc12 [Example 102],EC50,[1],2.3 nM
same,half-life at 1 μM,[2],> 2.17 h
Cn1nc(C(C)(C)NC(=O)[C@H]2[C@@H]3CNC[C@@H]32)c2cccc(F)c21 [Example 105],EC50,[1],0.4 nM
same,half-life at 1 μM,[2],> 2.17 h
CC(C)(NC(=O)[C@H]1[C@@H]2CNC[C@@H]21)c1n[nH]c2c(F)cccc12 [Example 109],EC50,[1],0.3 nM
same,half-life at 1 μM,[2],> 2.17 h
CC(NC(=O)[C@H]1[C@@H]2CNC[C@@H]21)c1nn(C)c2ccccc12 (stereo partly drawn) [Example 111],EC50,[1],14.5 nM
same,half-life at 1 μM,[2],> 2.17 h
CC(NC(=O)[C@H]1[C@@H]2CNC[C@@H]21)c1nn(C)c2c(Cl)cccc12 (stereo partly drawn) [Example 114],EC50,[1],4.7 nM
same,half-life at 1 μM,[2],> 2.17 h
CC(C)(NC(=O)[C@H]1[C@@H]2CNC[C@@H]21)c1nc(C2CC2)c2ccccn12.Cl [Example 120],EC50,[1],1.9 nM
same,half-life at 1 μM,[2],> 2.17 h
Cc1cccn2c(C(C)(C)NC(=O)[C@H]3[C@@H]4CNC[C@@H]43)nc(C(F)(F)F)c12.Cl [Example 129],EC50,[1],6.8 nM
same,half-life at 1 μM,[2],> 2.17 h
CC(C)(NC(=O)[C@H]1[C@@H]2CNC[C@@H]21)c1ncc2c(F)cccn12.Cl [Example 133],EC50,[1],7.1 nM
same,half-life at 1 μM,[2],> 2.17 h
Cc1cccn2c(C3(NC(=O)[C@H]4[C@@H]5CNC[C@@H]54)CCC3)ncc12 [Example 137],EC50,[1],0.8 nM
same,half-life at 1 μM,[2],> 2.17 h

# Reference: US9789082B2, “Somatostatin receptor subtype 4 (SSTR4) agonists” (Centrexion Therapeutics Corporation, priority 2013, dated 2017)
